The results in this text go back to ChEMBL document CHEMBL1144194, “Initial SAR studies on apamin-displacing 2-aminothiazole blockers of calcium-activated small conductance potassium channels” (Bioorg Med Chem Lett, 2008).

Experiment [1] deals with T1, Small conductance calcium-activated potassium channel protein 3 (Homo sapiens, UniProt Q9UGI6). The experiment can be described thus: Inhibition of Kca2.3 channel expressed in HEK293 cells at 30 uM by thallium flux assay. The experiment is classed as cell-based.
T1 sequence (Q9UGI6 whole entry): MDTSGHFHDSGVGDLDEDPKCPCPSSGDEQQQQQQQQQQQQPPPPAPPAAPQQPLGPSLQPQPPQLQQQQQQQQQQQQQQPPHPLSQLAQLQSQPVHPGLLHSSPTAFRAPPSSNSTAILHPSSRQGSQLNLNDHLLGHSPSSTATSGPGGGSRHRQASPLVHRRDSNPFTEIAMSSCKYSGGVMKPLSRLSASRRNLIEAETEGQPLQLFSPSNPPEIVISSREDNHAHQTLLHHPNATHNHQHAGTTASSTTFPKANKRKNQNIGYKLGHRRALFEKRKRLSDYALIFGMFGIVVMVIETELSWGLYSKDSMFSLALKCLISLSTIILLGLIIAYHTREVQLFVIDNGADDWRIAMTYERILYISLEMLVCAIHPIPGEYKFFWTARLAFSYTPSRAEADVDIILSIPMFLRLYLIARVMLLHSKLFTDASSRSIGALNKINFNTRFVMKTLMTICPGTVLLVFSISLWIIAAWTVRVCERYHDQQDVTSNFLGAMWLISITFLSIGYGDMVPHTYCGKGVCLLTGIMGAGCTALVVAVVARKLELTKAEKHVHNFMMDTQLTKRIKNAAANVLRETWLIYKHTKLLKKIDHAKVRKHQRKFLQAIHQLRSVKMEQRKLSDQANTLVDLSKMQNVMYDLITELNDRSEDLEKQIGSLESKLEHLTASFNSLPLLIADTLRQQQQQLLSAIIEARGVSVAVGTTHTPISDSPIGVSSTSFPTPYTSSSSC
The target in experiment [2] is T1, Small conductance calcium-activated potassium channel protein 3. The experiment can be described thus: Inhibition of Kca2.3 channel expressed in HEK293 cells by thallium flux assay. The experiment is classed as cell-based.
The nature of experiment [3]: Inhibition of Kca channel.
Experiment [4] deals with T1, Small conductance calcium-activated potassium channel protein 3. Put plainly: Inhibition of Kca2.3 channel expressed in HEK293 cells by electrophysiology assay. Format: cell-based.
For experiment [5] the target is unchanged. The experiment can be described thus: Displacement of [125I]apamin from Kca2.3 channel expressed in HEK293 cells by scintillation proximity assay. The experiment is classed as cell-based. Background: In a radioligand displacement assay an active substance lowers the binding of a labelled ligand.
In experiment [6] the target is Small conductance calcium-activated potassium channel protein 1 (Homo sapiens, UniProt Q92952). The experiment can be described thus: Inhibition of Kca2.1 channel expressed in HEK293 cells by thallium flux assay. Format: cell-based.
Small conductance calcium-activated potassium channel protein 1, sequence (Q92952 whole entry): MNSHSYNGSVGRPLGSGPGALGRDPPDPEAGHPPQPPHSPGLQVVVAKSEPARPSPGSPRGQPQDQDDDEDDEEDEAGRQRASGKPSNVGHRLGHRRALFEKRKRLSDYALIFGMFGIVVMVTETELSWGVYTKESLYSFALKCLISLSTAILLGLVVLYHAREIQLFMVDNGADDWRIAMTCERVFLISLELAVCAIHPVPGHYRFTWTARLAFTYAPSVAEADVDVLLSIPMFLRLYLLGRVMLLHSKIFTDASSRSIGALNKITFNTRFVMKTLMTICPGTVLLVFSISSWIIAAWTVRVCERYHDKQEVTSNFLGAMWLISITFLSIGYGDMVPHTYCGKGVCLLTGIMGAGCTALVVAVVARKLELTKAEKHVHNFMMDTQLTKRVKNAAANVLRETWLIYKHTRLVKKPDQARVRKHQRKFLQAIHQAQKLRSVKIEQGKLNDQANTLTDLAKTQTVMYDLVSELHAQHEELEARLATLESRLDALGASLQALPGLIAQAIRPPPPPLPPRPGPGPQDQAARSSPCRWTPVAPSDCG
For experiment [7], the target named is T2, Small conductance calcium-activated potassium channel protein 2 (Homo sapiens, UniProt Q9H2S1). Put plainly: Inhibition of Kca2.2 channel expressed in HEK293 cells by thallium flux assay. The experiment is classed as cell-based.
T2 sequence (Q9H2S1 whole entry): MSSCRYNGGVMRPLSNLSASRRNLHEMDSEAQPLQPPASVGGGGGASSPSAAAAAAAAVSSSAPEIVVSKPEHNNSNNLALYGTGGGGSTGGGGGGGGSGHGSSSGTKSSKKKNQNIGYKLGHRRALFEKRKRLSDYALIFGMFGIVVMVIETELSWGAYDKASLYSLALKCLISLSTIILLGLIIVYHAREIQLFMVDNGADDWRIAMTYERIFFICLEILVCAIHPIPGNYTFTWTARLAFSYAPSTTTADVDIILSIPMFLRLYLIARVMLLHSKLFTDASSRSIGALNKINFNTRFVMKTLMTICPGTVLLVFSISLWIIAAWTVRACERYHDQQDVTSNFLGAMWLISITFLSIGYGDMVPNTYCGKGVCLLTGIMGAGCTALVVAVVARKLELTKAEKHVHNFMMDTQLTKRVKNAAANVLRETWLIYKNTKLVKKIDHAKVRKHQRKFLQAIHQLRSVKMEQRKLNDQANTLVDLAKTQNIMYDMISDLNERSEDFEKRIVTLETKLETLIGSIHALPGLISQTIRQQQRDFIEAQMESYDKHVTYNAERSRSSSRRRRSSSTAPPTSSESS
For experiment [8], the target named is Intermediate conductance calcium-activated potassium channel protein 4 (Homo sapiens) (UniProt O15554). The experiment can be described thus: Inhibition of Kca3.1 channel expressed in HEK293 cells by thallium flux assay. The experiment is classed as cell-based.
Intermediate conductance calcium-activated potassium channel protein 4 (Homo sapiens), sequence (O15554 whole entry): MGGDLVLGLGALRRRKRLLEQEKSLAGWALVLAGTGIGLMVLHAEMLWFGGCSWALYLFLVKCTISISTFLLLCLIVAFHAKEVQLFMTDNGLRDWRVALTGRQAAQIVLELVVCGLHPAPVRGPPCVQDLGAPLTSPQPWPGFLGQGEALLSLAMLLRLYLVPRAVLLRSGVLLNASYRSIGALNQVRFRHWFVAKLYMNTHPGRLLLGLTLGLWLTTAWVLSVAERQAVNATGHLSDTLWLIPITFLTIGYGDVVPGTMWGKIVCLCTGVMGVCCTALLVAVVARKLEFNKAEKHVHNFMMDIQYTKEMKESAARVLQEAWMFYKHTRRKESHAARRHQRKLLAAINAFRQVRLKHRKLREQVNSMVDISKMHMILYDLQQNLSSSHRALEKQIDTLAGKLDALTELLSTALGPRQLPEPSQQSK
In experiment [9] the target is T2, Small conductance calcium-activated potassium channel protein 2. Put plainly: Displacement of [125I]apamin from Kca2.2 channel expressed in HEK293 cells. The experiment is classed as cell-based.
The target of experiment [10] is Intermediate conductance calcium-activated potassium channel protein 4 (Homo sapiens) (UniProt O15554). The experiment can be described thus: Inhibition of Kca3.1 channel expressed in HEK293 cells at 30 uM by thallium flux assay. The experiment is classed as cell-based.
Experiment [11] in a line: Inhibition of guinea-pig Kca channel. Further details: species or system Cavia porcellus.

Calls of active or inactive are those of the source. The calls are words filed in the database; no cut-off is given here. Peptide text beside a SMILES is read from it.

Broadly, the inhibition is the change of the read-out against control, counted positive when it falls. As a reminder, the IC50 is the midpoint of a concentration-inhibition curve. For the molecule `Ic1ccc(Nc2nc(-c3ccccn3)cs2)nc1`, the inhibition in experiment [1] came to 29%. Also, in experiment [2], the IC50 was over 30000 nM.
For the molecule `c1ccc(Nc2nc(-c3ccccn3)cs2)cc1`, the inhibition in [1] came out at 9%.
In turn, `c1cc2cc(c1)C[n+]1ccc(c3ccccc31)NCc1ccc(cc1)CNc1cc[n+](c3ccccc13)C2` yielded an IC50 in [3] of 3 nM.
Take `c1ccc(Nc2nc(-c3cccnc3)cs2)nc1`: the inhibition in experiment [1] is 14%. In addition, the IC50 in experiment [2] is over 30000 nM.
The matching figures for `c1ccc(Cc2nc(-c3ccccn3)cs2)nc1`: 15% and over 30000 nM.
Consider `c1ccc(Nc2nc(-c3ccccc3)cs2)cc1`, for which, in [1], the inhibition is 18%. Moreover, the IC50 in experiment [2] was over 30000 nM.
For the molecule `FC(F)(F)c1cnc(Nc2nc(-c3ccccn3)cs2)c(Cl)c1`, in [1], the inhibition is 8%. Also, the IC50 in experiment [2] was over 30000 nM.
As for `c1ccc(Nc2nc(-c3ccccn3)cs2)nc1`, the inhibition in [1] came to 89%. Also, the IC50 in [2] amounted to 543 nM; in [4] it was 290 nM; in experiment [5] it was 25 nM; in [6], 43 nM; in experiment [7], 123 nM; in [9], 543 nM. For the same molecule, in experiment [8], the outcome was inactive.
On to `Cc1cc(N)c2ccccc2[n+]1CCCCCCCCCC[n+]1c(C)cc(N)c2ccccc21` [DEQUALINIUM CHLORIDE], for which the IC50 in experiment [2] was determined as 1300 nM; in experiment [4], 2000 nM; in experiment [3], 1000 nM.
Take `c1ccc(-c2csc(Nc3ccncc3)n2)nc1`: the inhibition in experiment [1] amounted to 14%. Moreover, in [2], the IC50 was over 30000 nM.
Regarding `c1ccc(-c2csc(Nc3cccnc3)n2)nc1`, the inhibition in experiment [1] amounted to 45%.
Consider `Cc1ccnc(Nc2nc(-c3ccccn3)cs2)c1`, for which the inhibition in experiment [1] amounted to 98%; in [10], 10%.
In experiment [3], `c1ccc2c(c1)CCC[C@H]2Nc1nc2ccccc2[nH]1` had an IC50 of 500 nM.
For the molecule `c1ccc(Nc2nc(-c3ccncc3)cs2)nc1`, in [2], the IC50 was over 30000 nM.
What is called Ki is the dissociation constant of the complex between target and ligand, obtained from inhibition or displacement. Higher therefore signals lower affinity. The molecule `CC[C@H](C)[C@H](NC(=O)[C@H](CS)NC(=O)[C@H](CCCCN)NC(=O)CNC(=O)[C@H](CC(C)C)NC(=O)[C@H](CC(C)C)NC(=O)CNC(=O)[C@H](CC(C)C)NC(=O)[C@H](CO)NC(=O)[C@H](CCCNC(=N)N)NC(=O)[C@H](CS)NC(=O)[C@H](CO)NC(=O)[C@H](CC(C)C)NC(=O)[C@H](CCC(N)=O)NC(=O)[C@H](CS)NC(=O)[C@H](CCSC)NC(=O)[C@H](CCCNC(=N)N)NC(=O)[C@H](CC(C)C)NC(=O)[C@H](CC(N)=O)NC(=O)[C@H](CS)NC(=O)[C@H](Cc1ccccc1)NC(=O)[C@H](C)N)C(=O)NCC(=O)N[C@@H](CC(=O)O)C(=O)N[C@@H](CCCCN)C(=O)N[C@@H](CS)C(=O)N[C@@H](CCC(=O)O)C(=O)N[C@@H](CS)C(=O)N[C@H](C(=O)N[C@@H](CCCCN)C(=O)N[C@@H](Cc1cnc[nH]1)C(=O)O)C(C)C` [Scyllatoxin] (H-AFCNLRMCQLSCRSLGLLGKCIGDKCECVKH-OH) had an inhibition constant (Ki) in [11] of 0.075 nM.
Turning to `c1ccc(-c2csc(-c3ccccn3)n2)nc1`, in [1], the inhibition came to 16%. Further, the IC50 in [2] is over 30000 nM.
`c1ccc(-c2csc(Nc3ncccn3)n2)nc1`: the inhibition in experiment [1] was 24%. In [2], the IC50 is over 30000 nM.
